Results taken from patent US20230146675A1, “PYRIMIDO[5,4-d]PYRIMIDINE DERIVATIVES AS ENT INHIBITORS FOR THE TREATMENT OF CANCERS, AND COMBINATION THEREOF WITH ADENOSINE RECEPTOR ANTAGONISTS” (ITEOS BELGIUM SA, priority 2020, published 2023).
Like-named read-outs stand apart in the source and are kept apart here.

Tests used:
human ENT1 [1] = biological target: T1, human ENT1 (Homo sapiens, UniProt Q99808); assay: Uridine transport inhibition assay (3H-uridine uptake, MDCKII-ENT1-LV cells); assay type: cell-based; conditions: 3H-uridine (1 μM), 1 min at 25° C.
T1 sequence (Q99808 1-456): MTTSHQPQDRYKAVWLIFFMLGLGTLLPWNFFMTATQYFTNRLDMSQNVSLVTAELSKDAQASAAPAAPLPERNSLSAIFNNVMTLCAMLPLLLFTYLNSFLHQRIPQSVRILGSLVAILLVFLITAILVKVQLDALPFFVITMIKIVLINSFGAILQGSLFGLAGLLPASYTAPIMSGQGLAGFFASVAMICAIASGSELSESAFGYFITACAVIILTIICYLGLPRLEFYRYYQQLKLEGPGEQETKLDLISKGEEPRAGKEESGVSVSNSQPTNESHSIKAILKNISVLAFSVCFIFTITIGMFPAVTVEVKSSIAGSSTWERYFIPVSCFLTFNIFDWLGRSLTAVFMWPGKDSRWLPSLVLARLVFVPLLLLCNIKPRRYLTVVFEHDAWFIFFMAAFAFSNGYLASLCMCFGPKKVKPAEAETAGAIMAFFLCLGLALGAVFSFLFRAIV
Text: Purpose. The aim of this study was to determine the potency of equilibrative nucleoside transporter 1 (ENT1) inhibitors by measuring ENT1-mediated transport is the cellular uptake assay. The human ENT1 transporter can be stably expressed in Madin-Darby Canine Kidney II (MDCKII) cells via transduction. Uridine is efficiently transported by ENT1 and is used as probe in the assay as 3H-uridine. The interaction is detected as the modulation of the initial rate of 3H-uridine transport by human ENT1 into MDCKII-ENT1-LV cells stably expressing ENT1 uptake transporter.

[2] = test system: stimulated primary human T cells; assay: T cell proliferation assay (rescue of proliferation in presence of 100 uM ATP); assay type: cell-based
Experimental: Purpose. The aim of this study was to determine the potency of equilibrative nucleoside transporter 1 (ENT1) inhibitors to rescue proliferation by stimulated primary human T cells incubated in the presence of 100 uM Adenosine triphosphate (ATP) with: • Condition A: X-VIVO15 • Condition B: X-VIVO15, 2% Human Serum Albumine (HSA) and 0.1% α-1-Acid Glycoprotein (AAG)
Method. Cryopreserved purified human CD3+ T cells were thawed and washed twice with RPMI1640 medium, UltraGlutamine containing 10% hiFBS.
Cells were suspended in PBS containing 10% hiFBS. Cells were stained with CFSE by adding 2 μM solution in PBS, to get a final 1 μM CFSE solution. Cells were incubated while rotating for 5 minutes. Reaction was stopped by adding PBS with 10% FBS and cells were centrifuged for 5 minutes at 1500 rpm.
Cells were resuspended at 1.6×10^6 cells/mL, either in X-VIVO15 medium or in 4% Human Serum Albumin and 0.2% α-1-Acid Glycoprotein. 50 μL of cell suspension (8×10^4 T cells) was added to wells of sterile round-bottom 96-well plates. Cells were activated by adding 50 μL of anti-CD3 anti-CD28 coated microbeads, suspended either in XVIVO-15 medium or in 4% HSA and 0.2% α-1-Acid Glycoprotein, at a ratio of one microbead per two cells.
Serial dilutions of the ENT1 inhibitors were prepared in X-VIVO15 from 10 mM stock solutions in DMSO, and 50 μL was added to the wells.
ATP powder was diluted in X-VIVO15, and 50 μL of this compound was added to the wells to reach a final assay concentration of 100 μM. Final volume of 200 μL.
The experiments were also performed in 384 well plates—all volumes reduced by a factor of 4 ([…]) with a final volume of 50 μL.
Experiments were performed in duplicate. The cells were placed in a 37° C. humidified tissue culture incubator with 5% CO2 for 72 hours for 96 well plates, 96 hours for 384 well plates. After 72 or 96 hours, proliferation was measured determined by CFSE dilution via flow cytometry.
Results. Compounds of the invention have good ENT1 inhibitory properties.

[3] = test system: human alpha 1-acid glycoprotein (AAG); assay: AAG binding assay - HPLC assay; conditions: human, 100 μmol/L
Experimental: Purpose. […] The principle of the assay is a liquid chromatography on a human AAG protein immobilized onto a silica support for separations of compounds following their affinity to AAG protein. By measuring the retention time, the binding to AAG can be determined relatively to the references.
Method. […] Mobile Phase A: 50 mM Ammonium acetate in deionized water; Mobile Phase B: Isopropanol; Column Oven: 8° C.; PDA(nm): 230; Flow Rate (mL/min): 0.2. Test Concentration (μmol/L): 100 (from 10 mmol/L DMSO solution diluted 100 folds by 50 mM Ammonium acetate in deionized water: Isopropanol (1:1)). Generic Gradient: Time (min): 0.01; 5; 13; 14; 20.

human AAG protein = assay: AAG binding assay - dialysis assay; conditions: 2 μM, 37° C., 4-hr
Experimental: Purpose. The aim of this assay is to determine the binding of a compound of interest to the human AAG protein using the robust method of dialysis.
Material. […] The dialysis Buffer (100 mM Phosphate Buffered Saline, pH 7.4) has been prepared by dissolving 28.56 g Na2HPO4.12H2O (AR grade) and 3.12 g NaH2PO4.2H2O (AR grade) into a final volume of 1000 mL ultra pure water, mixed, and adjusted the resulting solution with 1% phosphoric acid or 1 M sodium hydroxide to pH 7.4±0.1. Stored the final solution in 2-8° C. refrigerator within an expiration of a month after preparation.
Method: The dialysis membrane is soaked in dialysis buffer at 4° C. overnight. The following day the membrane is separated into two strips and then soaked in ethanol: water (20:80 v:v) for 20 mins. Then the membrane was rinsed with ultra-pure water 3-4 times. Prepared 400 μM working solution by diluting the stock solution (10 mM) with appropriate volume of DMSO. 5 μL aliquots of each working solution were spiked into 1000 μL of blank protein (matrix) to achieve a 2 μM final concentration as loading solution. The plates of loading solution were mixed well. Aliquots of 150 μL of loading solution were loaded in triplicate to the donor side of each dialysis well and dialyzed against an equal volume of dialysis buffer. […]
The concentration was calculated using the peak area ratio of analyte and internal standard.

human ENT1 [4] = biological target: T1, human ENT1; assay: ENT1 binding assay (competition with Sahenta-DY647 on JAR cells); set-up: JAR cells expressing ENT1 were bought from ATCC; host or cells: JAR cells; conditions: binned IC50
Outline: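 JAR cells were incubated with test compounds and the fluorescent ligand Sahenta-DY647 in competition. Plates were washed twice by centrifugation (4 min, 400 rcf, 4 °C). Binding potency was derived from the final fluorescence.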

| Structure (SMILES) | IC50 (human ENT1 [1]) [nM] | IC50 ([2]; Condition A: X-VIVO15, read-out: TCell proliferation (Condition A) IC50) [nM] | IC50 ([2]; Condition B: X-VIVO15, 2% HSA and 0.1% AAG, read-out: TCell proliferation (Condition B) IC50) [nM] | retention time (rt) on immobilized human AAG column [3] [min] | Human alpha-1-acid glycoprotein (AAG) (1 mg/mL) Unbound (human AAG protein) [% Unbound] | IC50 (human ENT1 [4]) [nM] |
| --- | --- | --- | --- | --- | --- | --- |
| COCCN(CCOC)c1nc(N2CCC(OC)CC2)c2nc(N(CCOC)CCOC)nc(N3CCC(OC)CC3)c2n1 [Compound 2, N2,N2,N6,N6-tetrakis(2-methoxyethyl)-4,8-bis(4-methoxypiperidin-1-yl)pyrimido[5,4-d]pyrimidine-2,6-diamine] | < 100 | 100 to 500 | 100 to 500 | 5.2 | 24.6 | 100 to 500 |
| COCCN(CCOC)c1nc(N2CCC(OC)CC2)c2nc(N(CCO)CCO)nc(N3CCC(OC)CC3)c2n1 [Compound 27, 2,2′-((6-(bis(2-methoxyethyl)amino)-4,8-bis(4-methoxypiperidin-1-yl)pyrimido[5,4-d]pyrimidin-2-yl)azanediyl)diethanol] | – | – | – | – | 89.4 | 500 to 1000 |
